# Where two headings read alike, the source gives them in different places.
# Experiments:
# Full-length human MNK1 = target: T1, Full-length human MNK1 (Homo sapiens, UniProt Q9BUB5, T385D); assay: MNK1 biochemical IC50 assay (Caliper Mobility Shift Assay)
# T1 construct: GST (N); purchased Carna Biosciences 02-145; host or cells: baculovirus expression system
# Text: (§1) The phosphorylated peptide product and unphosphorylated peptide substrate were detected using a Caliper Mobility Shift Assay using the Caliper LabChip EZ Reader II.
# (§2) The Caliper Mobility Shift Assay technology is based on the utilisation of a microfluidic chip to measure the conversion of a fluorescent non-phosphorylated peptide substrate to phosphorylated product by electrophoresis separation of substrate and product and detection via Laser-induced fluorescence. The LabChip EZ Reader software calculates the relative heights of substrate and product peaks and reports the peak ratio (Product peak(P) divided by the sum of Product peak(P) and Substrate peak(S)). The percent-conversion is calculated as 100×[(P/(P+S)]. All assays were set up to run in the linear phase with a maximum of 10 percent substrate conversion.
# (§3) These were N-terminal GST fusion proteins expressed in baculovirus expression system and purified by glutathione sepharose affinity chromatography. […] All other assay reagents were sourced from Sigma.
# Compounds were serially diluted in DMSO to generate a 10-point half log dilution curve with a final top concentration of 100 uM in the assay. […] Compounds were pre-incubated with enzyme and peptide in reaction buffer for 30 mins prior to addition of ATP to initiate the reaction. Final assay concentrations were 3 nM MNK1, 2 uM peptide substrate, 50 uM ATP, 50 mM Hepes pH 7.0, 0.01% BSA, 10 mM MgCl2, 1 mM dithiothrietol.
# (§4) The assay incubation times were adjusted depending on the concentration of ATP used. Assays were performed at low (50 uM) and high (1 mM) ATP. The low ATP values were selected to run at Km conditions for the standard assay to allow relative potencies to be compared across other kinases. The high ATP concentration was selected as representative of cellular ATP concentrations, and for an indication of ATP competition, where a significant shift (greater than half log) in apparent potency would be expected compared to Km conditions. All IC50 values reported are the average of at least two independent experiments.
# Full-length human MNK2 = target: T2, Full-length human MNK2 (Homo sapiens, UniProt Q9HBH9, T379D); assay: MNK2 biochemical IC50 assay (Caliper Mobility Shift Assay)
# T2 construct: GST (N); purchased Carna Biosciences 02-146; host or cells: baculovirus expression system
# T2 sequence (Q9HBH9 whole entry T379D): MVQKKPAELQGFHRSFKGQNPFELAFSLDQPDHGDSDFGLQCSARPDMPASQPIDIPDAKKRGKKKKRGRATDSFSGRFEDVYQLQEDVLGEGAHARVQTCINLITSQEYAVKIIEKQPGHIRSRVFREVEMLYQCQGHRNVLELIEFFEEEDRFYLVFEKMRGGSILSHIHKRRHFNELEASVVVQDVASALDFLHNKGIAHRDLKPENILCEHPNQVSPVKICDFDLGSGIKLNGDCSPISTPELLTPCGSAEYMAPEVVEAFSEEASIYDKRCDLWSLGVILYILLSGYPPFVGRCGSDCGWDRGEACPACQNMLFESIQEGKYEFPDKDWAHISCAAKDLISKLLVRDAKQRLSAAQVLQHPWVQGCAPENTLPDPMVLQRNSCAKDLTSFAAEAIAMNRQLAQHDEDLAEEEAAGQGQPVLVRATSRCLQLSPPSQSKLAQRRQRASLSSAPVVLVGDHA
# Text: as §1, §2, §3, §4
# Reactions were performed as above using 10 nM MNK2 in the assay. Standard assays contained 50 uM ATP and high concentration ATP assays contained 1 mM ATP. […] All other conditions were the same.
# [1] = test system: phosphorylation of eIF4E at ser209 in MV4.11 cell line; assay: MNK cellular activity phospho-eIF4E detection assay (Alphascreen Surefire); format: cell-based; conditions: Homo sapiens
# Description: The assay detection is based on the formation of sandwich antibody complexes coupled to donor and acceptor beads. Excitation at 680 nm causes the transfer of a singlet oxygen species between donor and acceptor beads when they are in close proximity by binding to the analyte ([…]), which results in the emission of light at 520-620 nm.
# Cells were then lysed and the Alphascreen Surefire protocol followed according to manufacturer's recommendations. 8 ul Acceptor beads (1:50 dilution in kit activation buffer) was added to lysate, shaken 150 rpm for 2 min and incubated for 1.5 hr at room temperature. 3 ul Donor beads (1:20 dilution in kit dilution buffer) were then added, shaken 150 rpm for 2 min and incubated for a further 1.5 hr at room temperature after which the plates were read on Pherastar FS using Alphascreen optic module.
# Data were normalised relative to untreated DMSO only controls and curves repeated in duplicate within experiments. Data reported are averages of at least 2 independent experiments.
# [2] = read-out: P(IC50) MNK1 (converted)
# [3] = read-out: P(IC50) MNK2 (converted)
# [4] = MV4.11 cell line, phospho-eIF4E (ser209) Alphascreen Surefire, read-out: P(IC50) elF4E (converted)
# T1 sequence (Q9BUB5 1-424 isoform Q9BUB5-2 T344D): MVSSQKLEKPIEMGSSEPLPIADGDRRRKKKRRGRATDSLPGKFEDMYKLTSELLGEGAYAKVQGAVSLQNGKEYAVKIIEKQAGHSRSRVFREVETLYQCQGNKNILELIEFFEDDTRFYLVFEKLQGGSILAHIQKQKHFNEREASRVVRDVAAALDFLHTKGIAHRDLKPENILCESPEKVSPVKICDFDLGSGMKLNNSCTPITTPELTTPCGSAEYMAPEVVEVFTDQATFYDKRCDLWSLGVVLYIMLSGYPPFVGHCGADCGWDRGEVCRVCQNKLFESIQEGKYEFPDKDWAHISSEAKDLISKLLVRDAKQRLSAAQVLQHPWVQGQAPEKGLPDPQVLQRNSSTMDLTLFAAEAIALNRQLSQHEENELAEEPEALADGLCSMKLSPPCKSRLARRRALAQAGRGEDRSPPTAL
IC50 (Full-length human MNK1; [2]) [µM],IC50 (Full-length human MNK2; [3]) [µM],"IC50 [1, 4] [µM]",IC50 (Full-length human MNK2) [µM],IC50 (Full-length human MNK1) [µM],SMILES,"IC50 ([1]; MV4-11, read-out: P(IC50) elF4E) [µM]"
0.00794,0.00794,0.0158,,,"CNCCCNC(=O)c1nc2c(N3CCc4ccccc43)ncnc2s1 [Example 97, 7-indolin-1-yl-N-[3-(methylamino)propyl] thiazolo[5,4-d]pyrimidine-2-carboxamide]",
0.01,0.00794,0.0316,,,"O=C(NCC1CCNCC1)c1nc2c(N3CC(CO)c4ccccc43)ncnc2s1 (stereo not shown) [Example 135, 7-[3-(Hydroxymethyl)indolin-1-yl]-N-(4-piperidylmethyl)thiazolo[5,4-d]pyrimidine-2-carboxamide]",
0.0126,0.0158,0.0158,,,"C[C@@H]1Cc2ccccc2N1c1ncnc2sc(C(=O)NCC3CCNCC3)nc12 [Example 127, (R)-7-(2-Methylindolin-1-yl)-N-(piperidin-4-ylmethyl)thiazolo[5,4-d]pyrimidine-2-carboxamide]",
0.00631,0.00794,0.00501,,,CC1CN(c2ncnc3sc(C(=O)NCC4CCNCC4)nc23)c2ccccc21 (stereo not shown) [Example 146],
0.0316,0.02,0.0316,,,"N#Cc1ccc2c(c1)CCN2c1ncnc2sc(C(=O)NC3CCOCC3)nc12 [Example 42, 7-(5-cyano-2,3-dihydro-1H-indol-1-yl)-N-(tetrahydro-2H-pyran-4-yl)[1,3]thiazolo[5,4-d]pyrimidine-2-carboxamide]",
0.0794,0.0794,0.251,,,"CN1CCN(C(=O)c2nc3c(N4CCc5cc(F)ccc54)ncnc3s2)CC1 [Example 65, [7-(5-fluoroindolin-1-yl)thiazolo[5,4-d]pyrimidin-2-yl]-(4-methylpiperazin-1-yl)methanone]",
0.00316,0.00316,,,,"O=C(NCC1CCNCC1)c1nc2c(N3CCc4cc(Cl)ccc43)ncnc2s1 [Example 168, 7-(5-Chloroindolin-1-yl)-N-(4-piperidylmethyl)thiazolo[5,4-d]pyrimidine-2-carboxamide]",
0.00316,0.00398,0.00398,,,"O=C(NC1CCNCC1)c1nc2c(N3CCc4ccccc43)ncnc2s1 [Example 98, 7-indolin-1-yl-N-(4-piperidyl)thiazolo[5,4-d]pyrimidine-2-carboxamide]",
0.2,0.126,0.158,,,O=C(NCC1CCNCC1)c1nc2c(N3c4ccccc4C[C@H]3CO)ncnc2s1 [Example 137],
0.01,,,0.00794,,"CN(C)CCCNC(=O)c1nc2c(N3CCc4ccccc43)ncnc2s1 [Example 27, N-[3-(Dimethylamino)propyl]-7-indolin-1-yl-thiazolo[5,4-d]pyrimidine-2-carboxamide]",
0.0631,0.0631,0.1,,,"O=C(NCC1CCNCC1)c1nc2c(Nc3ccc(F)cc3OC(CF)CF)ncnc2s1 [Example 52, 7-[4-fluoro-2-[2-fluoro-1-(fluoromethyl)ethoxy]anilino]-N-(4-piperidylmethyl)thiazolo[5,4-d]pyrimidine-2-carboxamide]",
0.00631,0.00316,0.00794,,,"O=C(NC1COC1)c1nc2c(N3CCc4cc(F)ccc43)ncnc2s1 [Example 76, 7-(5-fluoroindolin-1-yl)-N-(oxetan-3-yl)thiazolo[5,4-d]pyrimidine-2-carboxamide]",
0.00316,0.00501,0.02,,,CC1(CO)CN(c2ncnc3sc(C(=O)NCC4CCNCC4)nc23)c2ccc(F)cc21 (stereo not shown) [Example 141],
,,,0.002,0.002,O=C(NCCCN1CCCC1)c1nc2c(N3CCc4cc(F)ccc43)ncnc2s1 [Example 68],
,1.58,0.631,,,"O=C(NCC1CCNCC1)c1nc2c(Nc3ccc(F)cc3OC(F)(F)F)ncnc2s1 [Example 59, 7-[4-fluoro-2-(trifluoromethoxy)anilino]-N-(4-piperidylmethyl)thiazolo[5,4-d]pyrimidine-2-carboxamide]",
,0.631,0.501,,,"CC(C)Oc1ccc2c(c1)CCN2c1ncnc2sc(C(=O)NC3CCOCC3)nc12 [Example 116, 7-(5-Isopropoxyindolin-1-yl)-N-tetrahydropyran-4-yl-thiazolo[5,4-d]pyrimidine-2-carboxamide]",

# More lines, now with the values behind:
SMILES,IC50 (Full-length human MNK1; [2]) [µM],IC50 (Full-length human MNK2; [3]) [µM],"IC50 [1, 4] [µM]",IC50 (Full-length human MNK2) [µM],IC50 (Full-length human MNK1) [µM],"IC50 ([1]; MV4-11, read-out: P(IC50) elF4E) [µM]"
"O=C(NC1CCOCC1)c1nc2c(N3CC(CCN4CCCC4)c4ccccc43)ncnc2s1 (stereo not shown) [Example 153, 7-[3-(2-pyrrolidin-1-ylethyl)indolin-1-yl]-N-tetrahydropyran-4-yl-thiazolo[5,4-d]pyrimidine-2-carboxamide]",0.0501,0.0501,0.1,,,
"CN(C)CCCNC(=O)c1nc2c(Nc3ccc(F)cc3OC3CCCC3)ncnc2s1 [Example 22, 7-[2-(Cyclopentoxy)-4-fluoro-anilino]-N-[3-(dimethylamino)propyl]thiazolo[5,4-d]pyrimidine-2-carboxamide]",0.1,0.0631,0.0631,,,
CC1(C)CN(c2ncnc3sc(C(=O)NCC4CCNCC4)nc23)c2ccccc21 [Example 161],0.00316,,,0.00251,,0.00316
"CCOc1cc(F)ccc1Nc1ncnc2sc(C(=O)NCCCN(C)C)nc12 [Example 24, N-[3-(Dimethylamino)propyl]-7-(2-ethoxy-4-fluoro-anilino)thiazolo[5,4-d]pyrimidine-2-carboxamide]",0.1,0.1,0.0794,,,
"CC(C)Oc1cc(F)ccc1Nc1ncnc2sc(C(=O)NCCCN(C)C)nc12 [Example 3, N-[3-(Dimethylamino)propyl]-7-(4-fluoro-2-isopropoxy-anilino)thiazolo[5,4-d]pyrimidine-2-carboxamide]",0.0631,0.0501,0.0501,,,
"CC(C)Oc1cc(F)ccc1Nc1ncnc2sc(CO)nc12 [Example 48, [7-(4-Fluoro-2-isopropoxy-anilino)thiazolo[5,4-d]pyrimidin-2-yl]methanol]",0.0631,0.0398,0.02,,,
"CC(C)Oc1cc(F)ccc1Nc1ncnc2sc(C(=O)NC3CNC3)nc12 [Example 28, N-(azetidin-3-yl)-7-{[4-fluoro-2-(propan-2-yloxy)phenyl]amino}[1,3]thiazolo[5,4-d]pyrimidine-2-carboxamide]",0.126,0.0794,0.0794,,,
"O=C(NC1CCOCC1)c1nc2c(N3CC(CCO)c4ccccc43)ncnc2s1 (stereo not shown) [Example 110, 7-[3-(2-hydroxyethyl)indolin-1-yl]-N-tetrahydropyran-4-yl-thiazolo[5,4-d]pyrimidine-2-carboxamide]",0.01,0.01,0.01,,,
CO[C@H]1CCCC[C@@H]1Oc1cc(F)ccc1Nc1ncnc2sc(C(=O)NCCCN(C)C)nc12 [Example 21],,1.26,0.316,,,
"CN(C)CCCNC(=O)c1nc2c(N3CC(C)(C)c4ccccc43)ncnc2s1 [Example 25, N-[3-(Dimethylamino)propyl]-7-(3,3-dimethylindolin-1-yl)thiazolo[5,4-d]pyrimidine-2-carboxamide]",0.00631,,,0.00398,,
"CC(C)Oc1cc(F)ccc1Nc1ncnc2sc(C(=O)NCCN3CCNCC3)nc12 [Example 9, 7-(4-fluoro-2-isopropoxy-anilino)-N-(2-piperazin-1-ylethyl)thiazolo[5,4-d]pyrimidine-2-carboxamide]",0.0501,,,0.0316,,
